Laboratory results from patent publication US20050148518A1, “Anti-bacterial compositions” (Rowett Research Institute, priority 2002, published 2005).

Experiments:
[1] = test system: Listeria monocytogenes NCTC 11994; assay: Viability (killing) of L. monocytogenes treated with L-lactate and Coumarin; format: cell-based
[2] = test system: Salmonella enteritidis NCTC 4444; assay: Viability (killing) of S. enteritidis treated with L-lactate and Coumarin; format: cell-based
[3] = test system: E. coli O157:H7 strain NCTC 12900; format: cell-based, Escherichia coli O157:H7; details: for effect on viability of single compounds (FIG. 6A-C): L-lactate 50 mM or coumarin 7.5 mM alone; for dose dependence of inactivation (FIG. 1): L-lactate 50-200 mM, D-lactate 100-200 mM; for effect on viability of single compounds (FIG. 7A): citrate 50 mM or esculetin 7.5 mM alone
[4] = test system: methicillin-resistant Staphylococcus aureus (MRSA) strain NCTC 10442; assay: Viability (killing) of MRSA treated with L-lactate and Coumarin; format: cell-based
[5] = test system: S. aureus; assay: Growth inhibition monitored by spectrophotometer (650 nm); format: cell-based, Staphylococcus aureus; details: Coumarin 1.25 mM, L-lactate 5 mM
[6] = test system: S. enteritidis; assay: as above; format: cell-based, Salmonella enteritidis; details: Coumarin 2 mM; L-lactate concentration not given
[7] = test system: E. coli O157:H7 strain NCTC 12900; assay: as above; format: cell-based, Escherichia coli O157:H7; details: 37° C.; for growth compared to the control (FIG. 13B): 0.625 mM Coumarin, 18 mM L-lactate; for growth compared to the control (FIG. 13A): 12.5 mM L-lactate, 1.25 mM esculetin
[8] = test system: 8 E. coli O157:H7 strains and 8 non-O157:H7 E. coli strains; format: cell-based
[9] = test system: L. monocytogenes; assay: Growth inhibition monitored by spectrophotometer (650 nm); format: cell-based, Listeria monocytogenes; details: 1.25 mM Coumarin; L-lactate concentration not given

O=c1ccc2ccccc2o1 [Coumarin, 1,2 benzopyrone]
effect on viability (FIG. 11C) ([1]; Coumarin 6.8 mM alone): had no effect on the viability
effect on viability (FIG. 8B) ([1]; Coumarin 10 mM alone, pH 3.8): had no effect on viability
effect on viability (FIG. 11B) ([2]; Coumarin 6.8 mM alone): had no effect on the viability
effect on viability (FIG. 8A) ([2]; Coumarin 10 mM alone, pH 3.8): did not affect the viability
effect on viability (FIG. 11A) ([3]; Coumarin 6.8 mM alone): had no effect on the viability
effect on viability of single compounds (FIG. 6A-C) ([3]; 37° C., pH 3.8): neither 7.5 mM Coumarin (FIG. 6B) nor 7.5 mM umbelliferone (FIG. 6C) affected viability
effect on viability (FIG. 11D) ([4]; Coumarin 6.8 mM alone): had no effect on the viability
growth (FIG. 13E) [5]: inhibited
growth (FIG. 13C) [6]: inhibited the growth of S. enteritidis slightly
growth compared to the control (FIG. 13B) [7]: only slightly reduced the extent of growth
survival (FIG. 10) [8]: had little effect on the survival
growth (FIG. 13D) [9]: did not affect the growth of L. monocytogenes

C[C@@H](O)C(=O)O [D-lactate, reference compound]
dose dependence of inactivation (FIG. 1) ([3]; pH 3.8, 37° C.): dose-dependent

O=C(O)c1ccccc1 [benzoate]
reduction in numbers / viability (FIG. 7A, 7B) ([3]; citrate 50 mM, benzoate 25 mM, esculetin 7.5 mM, 8 hours, pH 3.8): approximately 4 log10 units

O=C(O)CC(O)(CC(=O)O)C(=O)O [citrate]
effect on viability of single compounds (FIG. 7A) ([3]; pH 3.8): neither citrate (50 mM) nor esculetin (7.5 mM) when used individually affected the viability

O=c1ccc2ccc(O)cc2o1 [umbelliferone]
effect on viability of single compounds (FIG. 6A-C) ([3]; 37° C., pH 3.8): neither 7.5 mM Coumarin (FIG. 6B) nor 7.5 mM umbelliferone (FIG. 6C) affected viability

O=c1ccc2cc(O)c(O)cc2o1 [esculetin]
effect on viability of single compounds (FIG. 7A) ([3]; pH 3.8): neither citrate (50 mM) nor esculetin (7.5 mM) when used individually affected the viability
growth compared to the control (FIG. 13A) [7]: caused a small reduction in the growth

COc1cc2ccc(=O)oc2cc1O [scopoletin]
effect on viability of single compounds (FIG. 6A-C) ([3]; 37° C., pH 3.8): neither L-lactate (50 mM) nor scopoletin (7.5 mM) on their own affected the viability

L-lactate
reduction in viability (FIG. 8B) ([1]; L-lactate 50 mM alone, 8 hours, pH 3.8): greater than 5 log10 units
antimicrobial effect, L-lactate versus D-lactate (FIG. 2) ([3]; 100 mM each, pH 3.8, 37° C.): exerted a greater antimicrobial effect than 100 mM D-lactate
effect on viability of single compounds (FIG. 6A-C) ([3]; 37° C., pH 3.8): neither L-lactate (50 mM) nor scopoletin (7.5 mM) on their own affected the viability
decrease in viability (FIG. 11A) ([3]; L-lactate 2%, Coumarin 6.8 mM, 10 minutes): approximately 3 log10 units
effectiveness at reducing numbers, L-lactate versus D-lactate (FIG. 1) ([3]; L-lactate 50, 100, 150 or 200 mM, D-lactate 100, 150 or 200 mM, pH 3.8, 37° C.): more effective at reducing numbers of the E. coli O157:H7 strain NCTC 12900 than D-lactate at all concentrations measured
dose dependence of inactivation (FIG. 1) ([3]; pH 3.8, 37° C.): dose-dependent
reduction in viability (FIG. 8C) ([4]; L-lactate 50 mM, Coumarin 10 mM, 8 hours, pH 3.8): greater than 3 log10 units
reduction in viability (FIG. 11D) ([4]; L-lactate 2%, Coumarin 6.8 mM, 60 minutes): approximately 2 log10 units
growth (FIG. 13E) [5]: inhibited
growth compared to the control (FIG. 13B) [7]: inhibited substantially
growth compared to the control (FIG. 13A) [7]: caused a small reduction in the growth
inactivation (percentage survival), L-lactate versus D-lactate (FIG. 3) ([8]; pH 3.8): much greater than that of D-lactate for all the E. coli strains tested
growth (FIG. 13D) [9]: inhibited growth slightly
